Results on seven molecules are retold here after patent US12662489B2 (Sitryx Therapeutics Limited, priority 2023, dated 2026).

Assay [1] deals with T1, MTHFD2 recombinant human enzyme (Homo sapiens, UniProt P13995).
T1 sequence (P13995 36-350): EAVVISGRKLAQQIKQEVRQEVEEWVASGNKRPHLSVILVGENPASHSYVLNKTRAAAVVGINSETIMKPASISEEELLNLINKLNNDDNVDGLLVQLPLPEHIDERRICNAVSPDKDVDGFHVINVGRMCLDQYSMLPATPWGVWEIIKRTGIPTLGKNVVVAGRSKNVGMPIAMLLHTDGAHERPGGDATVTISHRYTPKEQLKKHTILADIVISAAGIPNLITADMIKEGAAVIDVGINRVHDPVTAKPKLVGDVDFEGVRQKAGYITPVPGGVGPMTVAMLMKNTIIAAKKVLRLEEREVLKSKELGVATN
Kind of assay: MTHFD2 inhibition assay (NAD(P)H-Glo luminescence). Particulars: for MTHFD1/MTHFD2 IC50 ratio: selectivity of MTHFD2 inhibition over MTHFD1, band.

The target of assay [2] is T2, MTHFD1 recombinant human enzyme (Homo sapiens, UniProt P11586).
T2 sequence (P11586 2-291 limits assumed): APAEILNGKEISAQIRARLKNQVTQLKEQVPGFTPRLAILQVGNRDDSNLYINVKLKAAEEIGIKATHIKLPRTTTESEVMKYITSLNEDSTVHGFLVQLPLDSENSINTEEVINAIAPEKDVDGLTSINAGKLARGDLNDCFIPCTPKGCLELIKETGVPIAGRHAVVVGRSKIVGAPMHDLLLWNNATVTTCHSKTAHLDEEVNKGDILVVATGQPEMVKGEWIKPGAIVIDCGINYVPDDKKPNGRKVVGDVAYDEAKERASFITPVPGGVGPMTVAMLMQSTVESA
Kind of assay: MTHFD1 inhibition assay (NAD(P)H-Glo luminescence). As to conditions: MTHFD1 IC50, recombinant human enzyme 200 nM, NADP, band.

What is called IC50 is the concentration needed to halve the response being measured. For `COC[C@H]1CN(c2cc(C)c3c4c(c(=O)oc3c2C)CN(C(=O)c2ccc(C(=O)NS(=O)(=O)N(C)C)c(N3CC5CC5C3)c2)CC4)CCN1C` (stereo partly drawn) [Example 47, 2-(3-azabicyclo[3.1.0]hexan-3-yl)-N-(N,N-dimethylsulfamoyl)-4-(8-((R)-3-(methoxymethyl)-4-methylpiperazin-1-yl)-7,10-dimethyl-5-oxo-1,3,4,5-tetrahydro-2H-chromeno[3,4-c]pyridine-3-carbonyl)benzamide], in assay [1], the half-maximal inhibitory concentration (IC50) was in the range of 1 to 10 nM and the “MTHFD1/MTHFD2 IC50 ratio” value is “G (^ 3 to 9.0)”. The 50% inhibitory concentration (IC50) in assay [2] was 1 to 10 nM.

Take `COC[C@H]1CN(c2cc(C)c3c4c(c(=O)oc3c2C)CN(C(=O)c2ccc(C(=O)NS(=O)(=O)C3(C)CC3)c(N3C5CCC3CC5)c2)CC4)CCN1C` [Example 48, (R)-2-(7-azabicyclo[2.2.1]heptan-7-yl)-4-(8-(3-(methoxymethyl)-4-methylpiperazin-1-yl)-7,10-dimethyl-5-oxo-1,3,4,5-tetrahydro-2H-chromeno[3,4-c]pyridine-3-carbonyl)-N-((1-methylcyclopropyl)sulfonyl)benzamide]: in assay [1], the IC50 was in the range of 1 to 10 nM and the “MTHFD1/MTHFD2 IC50 ratio” value is listed as “F (<3)”. Also, the IC50 in assay [2] is 1 to 10 nM.

In the case of `COC[C@H]1CN(c2cc(C)c3c4c(c(=O)oc3c2C)CN(C(=O)c2ccc(C(=O)NS(=O)(=O)N(C)C)c(N3C5CCC3CC5)c2)CC4)CCN1C` [Example 49, (R)-2-(7-azabicyclo[2.2.1]heptan-7-yl)-N-(N,N-dimethylsulfamoyl)-4-(8-(3-(methoxymethyl)-4-methylpiperazin-1-yl)-7,10-dimethyl-5-oxo-1,3,4,5-tetrahydro-2H-chromeno[3,4-c]pyridine-3-carbonyl)benzamide], in assay [1], the concentration for half-maximal inhibition (IC50) lay in the range of 1 to 10 nM and the “MTHFD1/MTHFD2 IC50 ratio” value is “F (<3)”. For the same molecule, the IC50 in assay [2] lay in the range of 1 to 10 nM.

For the molecule `COC[C@H]1CN(c2cc(C)c3c4c(c(=O)oc3c2C)CN(C(=O)c2ccc(C(=O)NS(=O)(=O)N(C)C)c(OC3CCC3)c2F)CC4)CCN1C` [Example 51, (R)-2-cyclobutoxy-N-(N,N-dimethylsulfamoyl)-3-fluoro-4-(8-(3-(methoxymethyl)-4-methylpiperazin-1-yl)-7,10-dimethyl-5-oxo-1,3,4,5-tetrahydro-2H-chromeno[3,4-c]pyridine-3-carbonyl)benzamide], in assay [1], the IC50 was 1 to 10 nM and the “MTHFD1/MTHFD2 IC50 ratio” value is “F (<3)”. Also, the IC50 in assay [2] was in the range of 1 to 10 nM.

On to `COC[C@H]1CN(c2ccc3c4c(c(=O)oc3c2Cl)CN(C(=O)c2ccc(C(=O)NS(=O)(=O)N(C)C)c(OC3CCC3)c2F)CC4)CCN1C` [Example 52, (R)-4-(7-chloro-8-(3-(methoxymethyl)-4-methylpiperazin-1-yl)-5-oxo-1,3,4,5-tetrahydro-2H-chromeno[3,4-c]pyridine-3-carbonyl)-2-cyclobutoxy-N-(N,N-dimethylsulfamoyl)-3-fluorobenzamide], for which the half-inhibitory concentration (IC50) in assay [1] and in assay [2] was 1 to 10 nM in each case.

Take `COC[C@H]1CN(c2ccc3c4c(c(=O)oc3c2Cl)CN(C(=O)c2ccc(C(=O)NS(=O)(=O)N3CCCC3)c(OC3CCC3)c2F)CC4)CCN1C` [Example 53, (R)-4-(7-chloro-8-(3-(methoxymethyl)-4-methylpiperazin-1-yl)-5-oxo-1,3,4,5-tetrahydro-2H-chromeno[3,4-c]pyridine-3-carbonyl)-2-cyclobutoxy-3-fluoro-N-(pyrrolidin-1-ylsulfonyl)benzamide]: in assay [1], the IC50 fell in the range of 10 to 100 nM and the “MTHFD1/MTHFD2 IC50 ratio” value is “F (<3)”. Also, the IC50 in assay [2] fell in the range of 1 to 10 nM.

`COC[C@H]1CN(c2cc(C)c3c4c(c(=O)oc3c2C)CN(C(=O)c2ccc(C(=O)NS(=O)(=O)N(C)C)c(N(C)C3CCC3)c2)CC4)CCN1C` [Example 55, (R)-2-(cyclobutyl(methyl)amino)-N-(N,N-dimethylsulfamoyl)-4-(8-(3-(methoxymethyl)-4-methylpiperazin-1-yl)-7,10-dimethyl-5-oxo-1,3,4,5-tetrahydro-2H-chromeno[3,4-c]pyridine-3-carbonyl)benzamide]: in assay [1], the half-inhibitory concentration (IC50) was 1 to 10 nM and the “MTHFD1/MTHFD2 IC50 ratio” value is “G (^ 3 to 9.0)”. In addition, the IC50 in assay [2] fell in the range of 10 to 100 nM.
